US20250195502A1, “APPLICATION OF TETRACYCLIC COMPOUND IN TREATMENT OF TUMORS” (SHANGHAI SHIJIANG BIOTECHNOLOGY CO., LTD, priority 2022, published 2025)
pIC50: −log10 of the molar value.

Test system: D341 Med (cerebellar medulloblastoma cell)
Assay: Cell viability assay (Promega CellTiter-Glo), inhibitory effect on D341 Med
Type: cell-based
Conditions: Homo sapiens, 72 h, 3 days of culture, read-out: inhibitory effect on brain cell line D341 Med (IC50)
Method: (§1) The inhibitory effect of the compounds prepared in the Examples of the present invention on various brain tumor cell lines was detected using cell viability assay reagent.
(§2) Cell viability was detected using the Promega CellTiter-Glo kit, cell viability was determined by directly measuring intracellular ATP content. In the experiment, the IC50 value of the compounds prepared in the Examples of the present invention on various brain tumor cell lines was detected.
(§3) Each tumor cell was cultured in relevant medium. After cell passage, the gradient diluted compounds prepared in the Examples of the present invention was added. After 3 days of culture, the relevant IC50 (50% inhibiting concentration) was measured. The name, source and culture conditions of each tumor cell line were as follows:
Cell line D341 Med (ATCC, No. HTB-187) was cultured in 20% fetal bovine serum-containing EMEM medium (+P/S).

| Structure (SMILES) | pIC50 |
| --- | --- |
| COc1ccc2cc3[n+](cc2c1OCCCBr)CCc1cc2c(cc1-3)OCO2 [compound AB31721] | 6.44 |
| CCC(CC)C(=O)Oc1c(OC)ccc2cc3[n+](cc12)CCc1cc2c(cc1-3)OCO2 [compound AB31722] | 5.54 |

Test system: NCI-H82 (human small cell lung cancer cell)
Assay: Cell viability assay (Promega CellTiter-Glo), inhibitory effect on NCI-H82
Type: cell-based
Conditions: 72 h, 3 days of culture
Method: (§4) The inhibitory effect of the compounds prepared in the Examples of the present invention on various tumor cell lines was detected using cell viability assay reagent.
(§5) Cell viability was detected using the Promega CellTiter-Glo kit, cell viability was determined by directly measuring intracellular ATP content. In the experiment, the ICso value of the compounds prepared in the Examples of the present invention on various tumor cell lines was detected.
as §3
Cell line NCI-H82 (ATCC, No. HTB-175) was cultured in 10% fetal bovine serum-containing RPMI1640 medium (+P/S).

| Structure (SMILES) | pIC50 |
| --- | --- |
| COc1ccc2cc3[n+](cc2c1OCCCBr)CCc1cc2c(cc1-3)OCO2 [compound AB31721] | 6.40 |
| CCC(CC)C(=O)Oc1c(OC)ccc2cc3[n+](cc12)CCc1cc2c(cc1-3)OCO2 [compound AB31722] | 5.55 |

Test system: SW48 (human colon adenocarcinoma cell)
Assay: Cell viability assay (Promega CellTiter-Glo), inhibitory effect on SW48
Type: cell-based
Conditions: 72 h, 3 days of culture
Method: as §4, §5, §3
Cell line SW48 (ATCC, No. CCL-231) was cultured in 10% fetal bovine serum-containing Leibovitz's L-15 medium (+P/S).

| Structure (SMILES) | pIC50 |
| --- | --- |
| COc1ccc2cc3[n+](cc2c1OCCCBr)CCc1cc2c(cc1-3)OCO2 [compound AB31721] | 6.10 |
| CCC(CC)C(=O)Oc1c(OC)ccc2cc3[n+](cc12)CCc1cc2c(cc1-3)OCO2 [compound AB31722] | 5.69 |

Test system: MDA-MB-453 (breast cancer cell)
Assay: Cell viability assay (Promega CellTiter-Glo), inhibitory effect on MDA-MB-453
Type: cell-based
Conditions: Homo sapiens, 72 h, 3 days of culture
Method: as §4, §5, §3
Cell line MDA-MB-453 (ATCC, No. HTB-131) was cultured in 10% fetal bovine serum-containing Leibovitz's L-15 medium (+P/S).

| Structure (SMILES) | pIC50 |
| --- | --- |
| COc1ccc2cc3[n+](cc2c1OCCCBr)CCc1cc2c(cc1-3)OCO2 [compound AB31721] | 6.37 |
| CCC(CC)C(=O)Oc1c(OC)ccc2cc3[n+](cc12)CCc1cc2c(cc1-3)OCO2 [compound AB31722] | 5.85 |

Test system: NB-1 (brain neuroblastoma cell)
Assay: Cell viability assay (Promega CellTiter-Glo), inhibitory effect on NB-1
Type: cell-based
Conditions: Homo sapiens, 72 h, 3 days of culture, read-out: inhibitory effect on brain cell line NB-1 (IC50)
Method: as §1, §2, §3
Cell line NB-1 (ATCC, No. HTB-131) was cultured in 10% fetal bovine serum-containing Leibovitz's L-15 medium (+P/S).

| Structure (SMILES) | pIC50 |
| --- | --- |
| COc1ccc2cc3[n+](cc2c1OCCCBr)CCc1cc2c(cc1-3)OCO2 [compound AB31721] | 6.85 |
| CCC(CC)C(=O)Oc1c(OC)ccc2cc3[n+](cc12)CCc1cc2c(cc1-3)OCO2 [compound AB31722] | 6.01 |

Test system: Con-NCI-H82 cell (NCI-H82 transfected with empty virus vector)
Assay: Cell viability assay (Promega CellTiter-Glo), inhibitory effect on Con-NCI-H82 cell
Type: cell-based
Conditions: Homo sapiens; NCI-H82 transfected with empty virus vector (control); CellTiter-Glo; read-out: inhibitory effect on Con-NCI-H82 (IC50)
Method: (§6) The role of expression level of NNMT gene and DNMT1 in the sensitivity of NCI-H82 cell to the compounds prepared in the Examples of the present invention was determined
(§7) The expression of NNMT protein in NCI-H82 cell was overexpressed by inserting the NNMT gene into NCI-H82 cell using a viral vector, and the NNMT protein-overexpressing NCI-H82 cell (ov-NNMT NCI-H82 cell) was obtained. The expression of DNMT1 in NCI-H82 cell was knocked down transfecting (the by shRNA nucleotide sequence of shRNA was […] TTTTTG (SEQ ID No: 2)) using a viral vector, and the NCI-H82 cell with low expression of DNMT1 protein (sh-DNMT1 NCI-H82 cell) was obtained. The control NCI-H82 cell (Con-NCI-H82 cell) was obtained by transfecting NCI-H82 cell with empty virus vector without carrying NNMT gene and shRNA. The expressing content of NNMT protein and DNMT1 protein in the Con-NCI-H82 cell, the expressing content of NNMT protein in the ov-NNMT NCI-H82 cell, and the expressing content of DNMT1 protein in the sh-DNMT1 NCI-H82 cell were detected using Western Blot assay (as shown in FIG. 15 and FIG. 16), it could be seen from FIG. 15 and FIG. 16 that the NNMT protein was overexpressed in the ov-NNMT NCI-H82 cell and the expression of DNMT1 protein was knocked down (i.e, low expression) in the sh-DNMT1 NCI-H82 cell compared with the expression level of NNMT protein and DNMT protein in the Con-NCI-H82 cell.

| Structure (SMILES) | pIC50 |
| --- | --- |
| COc1ccc2cc3[n+](cc2c1OCCCBr)CCc1cc2c(cc1-3)OCO2 [compound AB31721] | 6.40 |
| CCC(CC)C(=O)Oc1c(OC)ccc2cc3[n+](cc12)CCc1cc2c(cc1-3)OCO2 [compound AB31722] | 5.55 |

Test system: sh-DNMT1 NCI-H82 cell (DNMT1 knocked down NCI-H82)
Assay: Cell viability assay (Promega CellTiter-Glo), inhibitory effect on sh-DNMT1 NCI-H82 cell
Type: cell-based
Conditions: Homo sapiens, NCI-H82 with DNMT1 knocked down by shRNA
Method: as §6, §7

| Structure (SMILES) | pIC50 |
| --- | --- |
| COc1ccc2cc3[n+](cc2c1OCCCBr)CCc1cc2c(cc1-3)OCO2 [compound AB31721] | 5.88 |
| CCC(CC)C(=O)Oc1c(OC)ccc2cc3[n+](cc12)CCc1cc2c(cc1-3)OCO2 [compound AB31722] | 5.05 |

Test system: SF126 (human glioblastoma multiforme cell)
Assay: Cell viability assay (Promega CellTiter-Glo), inhibitory effect on SF126
Type: cell-based
Conditions: 72 h, SF-126, 3 days of culture, Table 3, read-out: inhibitory effect on SF-126 (IC50)
Method: as §4, §5, §3
Cell line SF126 (JCRB, No. IFO50286) was cultured in 10% fetal bovine serum-containing EMEM medium (+P/S).
as §1, §2

| Structure (SMILES) | pIC50 |
| --- | --- |
| COc1ccc2cc3[n+](cc2c1OCCCBr)CCc1cc2c(cc1-3)OCO2 [compound AB31721] | 4.97 |
| CCC(CC)C(=O)Oc1c(OC)ccc2cc3[n+](cc12)CCc1cc2c(cc1-3)OCO2 [compound AB31722] | 4.69 |

Same assay, conditions: SF-126, 72 h, SF126, 3 days of culture, Table 4, read-out: inhibitory effect on brain cell line SF126 (IC50)

| Structure (SMILES) | pIC50 |
| --- | --- |
| COc1ccc2cc3[n+](cc2c1OCCCBr)CCc1cc2c(cc1-3)OCO2 [compound AB31721] | 4.97 |
| CCC(CC)C(=O)Oc1c(OC)ccc2cc3[n+](cc12)CCc1cc2c(cc1-3)OCO2 [compound AB31722] | 4.69 |

Test system: CFPAC-1 (human pancreatic cancer cell)
Assay: Cell viability assay (Promega CellTiter-Glo), inhibitory effect on CFPAC-1
Type: cell-based
Conditions: 72 h, 3 days of culture
Method: as §4, §5, §3
Cell line CFPAC-1 (ATCC, No. CRL-1918) was cultured in 10% fetal bovine serum-containing IMDM medium (+P/S).

| Structure (SMILES) | pIC50 |
| --- | --- |
| COc1ccc2cc3[n+](cc2c1OCCCBr)CCc1cc2c(cc1-3)OCO2 [compound AB31721] | 5.14 |
| CCC(CC)C(=O)Oc1c(OC)ccc2cc3[n+](cc12)CCc1cc2c(cc1-3)OCO2 [compound AB31722] | 4.61 |

Test system: GB-1 (human brain glioblastoma cell)
Assay: Cell viability assay (Promega CellTiter-Glo), inhibitory effect on GB-1
Type: cell-based
Conditions: 72 h, 3 days of culture, Table 3, read-out: inhibitory effect on GB-1 (IC50)
Method: as §4, §5, §3
Cell line GB-1 (JCRB, No. IFO50489) was cultured in 10% fetal bovine serum-containing DMEM medium (+P/S).
as §1, §2

| Structure (SMILES) | pIC50 |
| --- | --- |
| COc1ccc2cc3[n+](cc2c1OCCCBr)CCc1cc2c(cc1-3)OCO2 [compound AB31721] | 5.00 |
| CCC(CC)C(=O)Oc1c(OC)ccc2cc3[n+](cc12)CCc1cc2c(cc1-3)OCO2 [compound AB31722] | 4.39 |

Same assay, conditions: 72 h, 3 days of culture, Table 4, read-out: inhibitory effect on brain cell line GB-1 (IC50)

| Structure (SMILES) | pIC50 |
| --- | --- |
| COc1ccc2cc3[n+](cc2c1OCCCBr)CCc1cc2c(cc1-3)OCO2 [compound AB31721] | 5.00 |
| CCC(CC)C(=O)Oc1c(OC)ccc2cc3[n+](cc12)CCc1cc2c(cc1-3)OCO2 [compound AB31722] | 4.39 |

Test system: 786-O (clear cell renal cell adenocarcinoma cell)
Assay: Cell viability assay (Promega CellTiter-Glo), inhibitory effect on 786-O
Type: cell-based
Conditions: Homo sapiens, 786-0, 72 h, 3 days of culture
Method: as §4, §5, §3
Cell line 786-0 (ATCC, No. CRL-1932) was cultured in 10% fetal bovine serum-containing RPMI1640 medium (+P/S).

| Structure (SMILES) | pIC50 |
| --- | --- |
| COc1ccc2cc3[n+](cc2c1OCCCBr)CCc1cc2c(cc1-3)OCO2 [compound AB31721] | 5.04 |
| CCC(CC)C(=O)Oc1c(OC)ccc2cc3[n+](cc12)CCc1cc2c(cc1-3)OCO2 [compound AB31722] | 4.58 |

Test system: G-401 (human renal carcinoma Wilms cell)
Assay: Cell viability assay (Promega CellTiter-Glo), inhibitory effect on G-401
Type: cell-based
Conditions: 72 h, 3 days of culture
Method: as §4, §5, §3
Cell line G-401 (ATCC, No. CRL-1441) was cultured in 10% fetal bovine serum-containing McCoy's 5a medium (+P/S).

| Structure (SMILES) | pIC50 |
| --- | --- |
| COc1ccc2cc3[n+](cc2c1OCCCBr)CCc1cc2c(cc1-3)OCO2 [compound AB31721] | 5.86 |
| CCC(CC)C(=O)Oc1c(OC)ccc2cc3[n+](cc12)CCc1cc2c(cc1-3)OCO2 [compound AB31722] | 5.40 |

Test system: Kelly (brain neuroblastoma cell)
Assay: Cell viability assay (Promega CellTiter-Glo), inhibitory effect on Kelly
Type: cell-based
Conditions: Homo sapiens, 72 h, 3 days of culture, read-out: inhibitory effect on brain cell line Kelly (IC50)
Method: as §1, §2, §3
Cell line Kelly (ECACC, No. 92110411) was cultured in 10% fetal bovine serum and 2 mM glutamine-containing RPMI1640 medium.

| Structure (SMILES) | pIC50 |
| --- | --- |
| COc1ccc2cc3[n+](cc2c1OCCCBr)CCc1cc2c(cc1-3)OCO2 [compound AB31721] | 5.90 |
| CCC(CC)C(=O)Oc1c(OC)ccc2cc3[n+](cc12)CCc1cc2c(cc1-3)OCO2 [compound AB31722] | 5.60 |

Test system: ov-NNMT NCI-H82 cell (NNMT protein-overexpressing NCI-H82)
Assay: Cell viability assay (Promega CellTiter-Glo), inhibitory effect on ov-NNMT NCI-H82 cell
Type: cell-based
Conditions: Homo sapiens
Method: as §6, §7

| Structure (SMILES) | pIC50 |
| --- | --- |
| COc1ccc2cc3[n+](cc2c1OCCCBr)CCc1cc2c(cc1-3)OCO2 [compound AB31721] | 6.04 |
| CCC(CC)C(=O)Oc1c(OC)ccc2cc3[n+](cc12)CCc1cc2c(cc1-3)OCO2 [compound AB31722] | 5.22 |
